Results reported in patent US20250304571A1, “BIOLOGICALLY ACTIVE COMPOUNDS AND METHODS THEREOF” (Suzhou Keen Therapeutics Co., Ltd., priority 2022, published 2025).
Where two headings read alike, the source gives them in different places.

Test system: 786-O (renal cell carcinoma) cells
Assay: Cell viability (CellTiter Glo) assay, inhibition of 786-O cell proliferation
Format: cell-based
Settings: read-out: IC50, inhibition of 786-O cell proliferation
[1] = Homo sapiens, 786-0, 786-O cells, 72 hours, CellTiter Glo
[2] = 786-O cells, 72 hours, CellTiter Glo

| Structure (SMILES) | IC50 [1] [nM] | also measured |
| --- | --- | --- |
| CNc1nc(COC(=N)N2CCC[C@H]2C(F)(F)F)nc2c1C1(CCCC1)C(=O)N2c1cnc(N2C[C@@H](C)O[C@@H](C)C2)nc1 (relative stereo) [Compound E103] | 100 to 500 | – |
| CCCC[C@H]1Cc2cc(OC)ccc2[C@H](c2ccc(F)cc2)N1C(=O)CO/C(=N\CCCN(C)C)NCC [Compound A3] | > 5000 | – |
| CCCC[C@H]1Cc2cc(OC)ccc2[C@H](c2ccc(F)cc2)N1C(=O)CO/C(=N\C(C)C)NC(C)C [Compound A4] | 500 to 5000 | – |
| CCCCC1Cc2c([nH]c3ccccc23)C(c2ccc(NC34CC5CC(CC(C5)C3)C4)cc2)N1C(=O)CO/C(=N\C(C)C)NC(C)C (stereo not shown) [Compound B1] | > 5000 | – |
| CCCCC1Cc2c([nH]c3ccccc23)C(c2ccc(F)cc2)N1C(=O)COC(=N)N1CCN(CC)C(=O)C12CC2 (stereo not shown) [Compound B2] | 500 to 5000 | – |
| N=C(OCc1ncc2c(n1)N(c1ccc(Oc3ccccc3)cc1)C(=O)CC2)N1CCC(F)(F)CC1 [Compound C1] | > 5000 | – |
| CN(C)C(=N)OCc1nc(NC2CCCCC2)c2cc[nH]c2n1 [Compound D9] | – | IC50 (Homo sapiens, 786-0, 72 h): 500 to 5000 nM |
| CN(C)C(=N)OCc1ncc2c(n1)c(-c1ccc(Oc3ccccc3)cc1)nn2C [Compound D11] | – | IC50 (Homo sapiens, 786-0, 72 h): 500 to 5000 nM |
| CC1(C)CN(c2ccc(Oc3ccccc3)cc2)c2nc(COC(=N)NC34CC5CC(CC(C5)C3)C4)nc(N)c21 [Compound E3] | 100 to 500 | – |
| COc1ccc(CNc2nc(COC(=N)N3CCC(F)(F)CC3)nc3c2C(C)(C)CN3c2ccc(Oc3ccccc3)cc2)cc1 [Compound E6] | 100 to 500 | – |
| CNc1nc(COC(=N)N2CCC(F)(F)CC2)nc2c1C(C)(C)CN2c1ccc(Oc2ccccc2)cc1 [Compound E7, (5,5-dimethyl-4-(methylamino)-7-(4-phenoxyphenyl)-6,7-dihydro-5H-pyrrolo[2,3-d]pyrimidin-2-yl)methyl 4,4-difluoropiperidine-1-carbimidate] | < 100 | – |
| CCN(CC(F)(F)F)C(=N)OCc1ncc2c(n1)N(c1ccc(Oc3ccccc3)cc1)CC2(C)C [Compound E9] | < 100 | – |
| CC1(C)CN(c2ccc(Oc3ccccc3)cc2)c2nc(COC(=N)N3CCCCC3C(F)(F)F)ncc21 (stereo not shown) [Compound E10] | < 100 | – |
| CC1(C)CN(c2ccc(Oc3ccccc3)cc2)c2nc(COC(=N)N3CCCC34COC4)ncc21 [Compound E11] | 500 to 5000 | – |
| N=C(OCc1ncc2c(n1)N(c1ccc(Oc3ccccc3)cc1)C(=O)C21CC1)N1CCCCC1C(F)(F)F (stereo not shown) [Compound E12] | 100 to 500 | – |
| CC(C)N(CC(F)(F)F)C(=N)OCc1ncc2c(n1)N(c1ccc(OC3CCCCC3)nc1)C(=O)C21CC1 [Compound E13] | 100 to 500 | – |
| CNc1nc(COC(=N)N2CCCC2C(F)(F)F)nc2c1C(C)(C)CN2c1ccc(N2CCOCC2)cc1OC (stereo not shown) [Compound E15] | < 100 | – |
| COc1cc(N2CCOCC2)ccc1N1CC(C)(C)c2c(NCC(F)(F)F)nc(COC(=N)N3CCC[C@@H]3C(F)(F)F)nc21 [Compound E16] | < 100 | – |
| COc1cc(N2CCOCC2)ccc1N1CC(C)(C)c2c(OCC(F)(F)F)nc(COC(=N)N3CCC[C@@H]3C(F)(F)F)nc21 [Compound E17] | – | IC50 (Homo sapiens, 786-0, 72 h): < 100 nM |
| CC1(C)CN(c2ccc(N3CCOCC3)cc2)c2nc(COC(=N)N3CCCC3C(F)(F)F)nc(N)c21 (stereo not shown) [Compound E18] | < 100 | – |

| Structure (SMILES) | IC50 [1] [nM] | also measured |
| --- | --- | --- |
| CNc1nc(COC(=N)N2CCC[C@@H]2C(F)(F)F)nc2c1C(C)(C)CN2c1ccc(N2C[C@@H](C)O[C@@H](C)C2)nc1 [Compound E19] | < 100 | – |
| C[C@@H]1CN(c2ccc(N3CC(C)(C)c4c(N)nc(COC(=N)N5CCC[C@@H]5C(F)(F)F)nc43)cn2)C[C@H](C)O1 [Compound E20] | < 100 | – |
| C[C@@H]1CN(c2ccc(N3CC4(CCC4)c4c(NCC(F)(F)F)nc(COC(=N)N5CCC[C@@H]5C(F)(F)F)nc43)cn2)C[C@H](C)O1 [Compound E21] | < 100 | – |
| CNc1nc(COC(=N)N2CCCC2C(F)(F)F)nc2c1C(C)(C)C(=O)N2c1ccc(N2CCC(F)(F)CC2)nc1 (stereo not shown) [Compound E22] | < 100 | – |
| CNc1nc(COC(=N)N2CCCC2C(F)(F)F)nc2c1C(C)(C)C(=O)N2c1ccc(N2C[C@@H](C)O[C@@H](C)C2)cc1 (stereo partly shown) [Compound E23] | < 100 | – |
| CC#CC(C)(C)N(C)C(=N)OCc1nc(N)c2c(n1)N(c1ccc(N3CCOCC3)cc1)C(=O)C2(C)C [Compound E27] | 500 to 5000 | – |
| CNc1nc(COC(=N)N2CCCC2C(F)(F)F)nc2c1C(C)(C)C(=O)N2c1ccccc1Oc1ccccc1F (stereo not shown) [Compound E29] | – | IC50 (Homo sapiens, 786-0, 72 h): < 100 nM |
| CNc1nc(COC(=N)N2CCC[C@@H]2C(F)(F)F)nc2c1C(C)(C)C(=O)N2c1cc(F)c2c(cnn2C(C)C)c1 [Compound E31] | < 100 | – |
| CNc1nc(COC(=N)N2CCC[C@@H]2C(F)(F)F)nc2c1C(C)(C)C(=O)N2c1cc(F)c2c(c1)nc(C)n2C(C)C [Compound E32] | – | IC50 [2]: < 100 nM |
| C[C@@H]1CN(c2ccc(N3C(=O)C4(CCC4)c4c(N)nc(COC(=N)N5CCC[C@@H]5C(F)(F)F)nc43)cn2)C[C@H](C)O1 [Compound E33] | < 100 | – |
| C[C@@H]1C[C@H](C)CN(c2ncc(N3C(=O)C(C)(C)c4c(N)nc(COC(=N)N5CCC[C@@H]5C(F)(F)F)nc43)cc2F)C1 [Compound E34] | < 100 | – |
| C[C@@H]1C[C@H](C)CN(c2ccc(N3C(=O)C(C)(C)c4c(N)nc(COC(=N)N5CCC[C@@H]5C(F)(F)F)nc43)cc2F)C1 [Compound E35] | < 100 | – |
| CNc1nc(COC(=N)N2CCC[C@@H]2C(F)(F)F)nc2c1C(C)(C)C(=O)N2c1cnc(N2C[C@@H](C)O[C@@H](C)C2)c(F)c1 [Compound E36] | < 100 | – |
| C[C@@H]1CN(c2ncc(N3C(=O)C(C)(C)c4c(N)nc(COC(=N)N5CCC[C@@H]5C(F)(F)F)nc43)cc2F)C[C@H](C)O1 [Compound E37] | < 100 | – |
| C[C@@H]1CN(c2ccc(N3C(=O)C(C)(C)c4c(NCC(F)(F)F)nc(COC(=N)N5CCC[C@@H]5C(F)(F)F)nc43)cn2)C[C@H](C)O1 [Compound E38] | < 100 | – |
| CNc1nc(COC(=N)N2CCC[C@@H]2C(F)(F)F)nc2c1C(C)(C)C(=O)N2c1ccc(N2C[C@H](C)C[C@H](C)C2)c(F)c1 [Compound E39] | < 100 | – |
| CNc1nc(COC(=N)N2CC(F)(F)C[C@@H]2C)nc2c1C(C)(C)C(=O)N2c1ccc(N2CCOCC2)cc1 [Compound E41] | 100 to 500 | – |
| CNc1nc(COC(=N)N2CC(F)(F)C[C@H]2C)nc2c1C(C)(C)C(=O)N2c1ccc(N2CCOCC2)cc1 [Compound E42] | 100 to 500 | – |
| C[C@@H]1C[C@H](C)CN(c2ccc(N3C(=O)C(C)(C)c4c(NCC(F)(F)F)nc(COC(=N)N5CCC[C@@H]5C(F)(F)F)nc43)cc2F)C1 [Compound E43] | < 100 | – |
| C[C@@H]1CN(c2ccc(N3C(=O)C4(CCCC4)c4c(NCC(F)(F)F)nc(COC(=N)N5CCC[C@@H]5C(F)(F)F)nc43)cn2)C[C@H](C)O1 [Compound E44] | < 100 | – |

| Structure (SMILES) | IC50 [1] [nM] | also measured |
| --- | --- | --- |
| C[C@@H]1CN(c2ccc(N3C(=O)C4(CCCCC4)c4c(N)nc(COC(=N)N5CCC[C@@H]5C(F)(F)F)nc43)cn2)C[C@H](C)O1 [Compound E45] | < 100 | – |
| C[C@@H]1CN(c2ccc(N3C(=O)C4(CCCC4)c4c(N)nc(COC(=N)N5CCC[C@@H]5C(F)(F)F)nc43)cn2)C[C@H](C)O1 [Compound E46] | – | IC50 (Homo sapiens, 786-0, 72 h): < 100 nM |
| COc1cc(N2C[C@@H](C)O[C@@H](C)C2)ncc1N1C(=O)C(C)(C)c2c(N)nc(COC(=N)N3CCC[C@@H]3C(F)(F)F)nc21 [Compound E47] | 100 to 500 | – |
| CC1(C)C(=O)N(c2ccc(N3CCOCC3)cc2)c2nc(COC(=N)N3CCC[C@@H]3C(F)(F)F)nc(NCC(F)(F)F)c21 [Compound E48] | < 100 | – |
| CC1(C)C(=O)N(c2ccc(N3CCCCC3)cc2)c2nc(COC(=N)N3CCC[C@@H]3C(F)(F)F)nc(NCC(F)(F)F)c21 [Compound E49] | < 100 | – |
| C[C@@H]1CN(c2ccc(N3C(=O)C(C)(C)c4c(NCC(F)(F)F)nc(COC(=N)N5CCC[C@@H]5C(F)(F)F)nc43)cc2F)C[C@H](C)O1 [Compound E50] | < 100 | – |
| CC1(C)C(=O)N(c2cc(F)c3c(c2)CCCO3)c2nc(COC(=N)N3CCC[C@@H]3C(F)(F)F)nc(NCC(F)(F)F)c21 [Compound E51] | < 100 | – |
| CC1(C)C(=O)N(c2ccc(N3CCOCC3)cc2)c2nc(COC(=N)N3CC(F)C[C@H]3C(F)(F)F)nc(N)c21 (stereo partly shown) [Compound E52] | 100 to 500 | – |
| N=C(OCc1nc(NC2CC2)c2c(n1)N(c1ccc(N3CCOCC3)cc1)C(=O)C21CCCC1)N1CCC[C@@H]1C(F)(F)F [Compound E53, (4′-(cyclopropylamino)-7′-(4-morpholinophenyl)-6′-oxo-6′,7′-dihydrospiro[cyclopentane-1,5′-pyrrolo[2,3-d]pyrimidin]-2′-yl)methyl (R)-2-(trifluoromethyl)pyrrolidine-1-carbimidate] | < 100 | – |
| CN(C)c1nc(COC(=N)N2CCC[C@@H]2C(F)(F)F)nc2c1C(C)(C)C(=O)N2c1ccc(N2CCOCC2)cc1 [Compound E54] | < 100 | – |
| N=C(OCc1nc(NC2CC2)c2c(n1)N(c1cc(F)c3c(c1)CCO3)C(=O)C21CCCCC1)N1CCC[C@@H]1C(F)(F)F [Compound E55] | < 100 | – |
| C=CCNc1nc(COC(=N)N2CCC[C@@H]2C(F)(F)F)nc2c1C(C)(C)C(=O)N2c1ccc(N2CCOCC2)cc1 [Compound E56] | < 100 | – |
| N=C(OCc1ncc2c(n1)N(c1ccc(N3CCOCC3)cc1)C(=O)C21CCCCC1)N1CCC[C@@H]1C(F)(F)F [Compound E58] | < 100 | – |
| CC1(C)C(=O)N(c2cnc(N3CCC(F)(F)CC3)nc2)c2nc(COC(=N)N3CCC[C@@H]3C(F)(F)F)nc(NC3CC3)c21 [Compound E59] | < 100 | – |
| N=C(OCc1nc(NCC(F)(F)F)c2c(n1)N(c1cc(F)c3c(c1)CCO3)C(=O)C21CCCC1)N1CCC[C@@H]1C(F)(F)F [Compound E61] | < 100 | – |
| N=C(OCc1nc(N)c2c(n1)N(c1cnc(C3CC3)nc1)C(=O)C21CCCC1)N1CCC[C@@H]1C(F)(F)F [Compound E63] | < 100 | – |
| CC1(C)C(=O)N(c2cc(F)c3c(c2)CCO3)c2nc(COC(=N)N3CCC[C@@H]3C(F)(F)F)nc(N)c21 [Compound E65] | < 100 | – |
| CC1(C)C(=O)N(c2ccc3c(c2)C2(CCO3)CC2)c2nc(COC(=N)N3CCC[C@@H]3C(F)(F)F)nc(NCC(F)(F)F)c21 [Compound E66] | – | IC50 [2]: < 100 nM |
